Experimental data reported in patent US10894798B2, “Substituted dihydropyrrolopyrazole derivative” (UBE INDUSTRIES, LTD., priority 2015, dated 2021).
Like-named read-outs stand apart in the source and are kept apart here.

Columns and labels:
PLK1 = target: T1, PLK1 (Homo sapiens, UniProt P53350); assay: PLK1 enzyme (polo-like kinase) inhibition test; format: biochemical; conditions: [γ-33P]ATP, casein substrate; Ki=IC50/(1+S/Km); read-out: Ki value of PLK1 inhibitory activity
T1 construct: purchased Carna Biosciences, Inc. 05-157
T1 sequence (P53350 whole entry): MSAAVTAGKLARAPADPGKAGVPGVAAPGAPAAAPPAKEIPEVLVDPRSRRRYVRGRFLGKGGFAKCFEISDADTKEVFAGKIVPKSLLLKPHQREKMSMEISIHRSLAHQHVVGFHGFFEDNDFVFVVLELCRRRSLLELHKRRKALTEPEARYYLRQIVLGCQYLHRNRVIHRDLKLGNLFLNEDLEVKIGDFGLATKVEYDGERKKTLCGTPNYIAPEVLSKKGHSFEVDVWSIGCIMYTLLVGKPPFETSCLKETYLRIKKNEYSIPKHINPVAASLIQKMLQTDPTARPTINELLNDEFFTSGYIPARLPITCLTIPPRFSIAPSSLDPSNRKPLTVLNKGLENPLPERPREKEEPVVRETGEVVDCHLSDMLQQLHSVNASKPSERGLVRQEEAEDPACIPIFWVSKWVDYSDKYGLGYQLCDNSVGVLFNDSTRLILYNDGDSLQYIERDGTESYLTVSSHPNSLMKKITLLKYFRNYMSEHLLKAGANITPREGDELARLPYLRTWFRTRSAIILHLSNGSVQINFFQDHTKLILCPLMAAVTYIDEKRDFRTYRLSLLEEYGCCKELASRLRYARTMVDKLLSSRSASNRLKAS
Summary of the method: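 Recombinant PLK1 phosphorylates casein with [γ-^33P]ATP in MOPS buffer (pH 7.0) containing DTT and magnesium acetate, 20 min at 30° C. Reaction stopped with TCA; washed precipitate counted by liquid scintillation. IC50 for inhibition of ^33P incorporation into casein, converted to Ki via Ki=IC50/(1+S/Km).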

IL-17 production = assay: Human PBMC various-stimulant cocktail-induced IL-17 production inhibition test; format: cell-based; conditions: 120 h, human T-cell suspension from PBMC, culture for 5 days, ELISA
Description: PBMC was separated and collected by using Ficoll-Paque (manufactured by GE Healthcare Japan Corp.) from blood collected from a healthy human adult in the presence of heparin. The collected PBMC was further cultured in a flask for a certain time, and then, non-adherent cells in the supernatant were collected and used as a T-cell suspension.
A RPMI1640 medium containing 10% FBS, 1% penicillin/streptomycin/amphotericin B, essential amino acids, and pyruvic acid and containing a test compound dissolved in DMSO, a human CD28 antibody, a human IFN-γ antibody, a human IL-4 antibody, human IL-6, human IL-23, human IL-1β, and human TGF-β was added at 100 μL/well to T cell Activation Plate Anti-Human CD3 96-well plate. Subsequently, 100 μL of a T-cell suspension adjusted to 2×10^5 cells/mL was added to each well (final DMSO concentration: 0.1%). Only DMSO was added to wells not supplemented with the test compound. After culture for 5 days in a carbon dioxide incubator, the culture supernatant was collected and stored at −20° C. until IL-17 content measurement.
In the measurement of an IL-17 content in the culture supernatant, a sandwich ELISA kit (Quantikine Human IL-17, manufactured by R&D Systems, Inc.) was used. The IL-17 content of each sample was calculated from the calibration curve of Standard IL-17 included in the kit. […] The concentration of the test compound necessary for inhibiting 50% of IL-17 production (IC50 value) was calculated from the concentration of the added test compound and the rate of inhibition of IL-17 production by the test compound by using EXSUS (version 8.1.0, manufactured by CAC Exicare Corp.).

[1] = tested on: human large intestine cancer cell line (HCT-116); assay: Human large intestine cancer (HCT-116) cell growth inhibition test; format: cell-based
Summary of the method: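 HCT-116 cells were seeded at 0.5 to 2.0×10^3 cells/well in McCoy's 5A with 10% FBS and dosed with compound at 0.1% final DMSO after overnight culture. Growth was measured by sulforhodamine B absorbance after 3 days. GI50 was calculated from the inhibition rate at each concentration.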

[2] = tested on: human large intestine cancer cell (HCT 116) tumor; assay: Tumor growth inhibition test in HCT 116-subcutaneously transplanted nude mouse; format: in vivo; conditions: dose of 100 mg/kg, repeated oral administration, HCT-116 in female BALB nude mice, control group = 100%, read-out: rate of suppression of tumor volume
Description: A human large intestine cancer cell line (HCT-116) was cultured in a McCoy's 5A medium containing 10% FBS and 1% penicillin/streptomycin/amphotericin B and adjusted to 1.0×10^8 cells/mL with PBS or Hanks solution (HBSS(−)). The prepared cell suspension was subcutaneously injected at 0.1 mL/mouse to the right abdomens of female BALB nude mice (supplied by Charles River Laboratories Japan, Inc.). After rearing for a certain period, the long diameter (mm) and short diameter (mm) of tumor were measured with electronic calipers, and the tumor volume was calculated according to the following expression: Tumor volume (mm^3)=(Long diameter)×(Short diameter)×(Short diameter)×0.5
Individuals whose tumor volume was within the range of 50 to 200 mm^3 were selected and grouped such that the tumor volume was almost equivalent, then a test compound or only a solvent was orally administered in a repeated manner, and the body weights and tumor volume were measured. A test compound was suspended in a 0.5 w/v % aqueous methylcellulose solution (0.5% MC) (manufactured by Wako Pure Chemical Industries, Ltd.) and orally administered at 10 mL/kg in a repeated manner. When the tumor volume of the control group was defined as 100%, the rate of suppression of tumor volume (%) at each dose of the test compound was calculated.

[3] = HCT-116, 72 h, culture for 3 days, sulforhodamine B, read-out: GI50 value, HCT-116 cell growth inhibition
[4] = HCT-116 (row of Table 50), read-out: GI50 value (concentration necessary for inhibiting 50% of cell growth)

Row | Ki (PLK1) | IC50 (IL-17 production) | GI50 [1, 3] | GI50 [1, 4] | Compound | inhibition in vivo at 100 mg/kg [2]
1 | ≥ 5000 nM | ≤ 100 nM | ≤ 100 nM | – | COc1cccc(Cl)c1NC(=O)N1Cc2c(NC(=O)C3([Si](C)(C)C)CCC3)n[nH]c2C1(C)C [IV-247, N-(2-Chloro-6-methoxyphenyl)-6,6-dimethyl-3-[1-(trimethylsilyl)cyclobutanecarboxamido]-4,6-dihydropyrrolo[3,4-c]pyrazole-5(1H)-carboxamide] | –
2 | ≥ 5000 nM | ≤ 100 nM | ≤ 100 nM | – | Cc1cccc(F)c1NC(=O)N1Cc2c(NC(=O)C3([Si](C)(C)C)CCC3)n[nH]c2C1(C)C [IV-129, N-(2-Fluoro-6-methylphenyl)-6,6-dimethyl-3-[1-(trimethylsilyl)cyclobutanecarboxamido]-4,6-dihydropyrrolo[3,4-c]pyrazole-5 (1H)-carboxamide] | –
3 | ≥ 5000 nM | ≤ 100 nM | ≤ 100 nM | < 300 nM | Cc1ccc(C)c(NC(=O)N2Cc3c(NC(=O)C4([Si](C)(C)C)CCC4)n[nH]c3C2(C)C)c1 [IV-379, N-(2,5-Dimethylphenyl)-6,6-dimethyl-3-[1-(trimethylsilyl)cyclobutanecarboxamido]-4,6-dihydropyrrolo[3,4-c]pyrazole-5(1H)-carboxamide] | ≥ 50%
4 | ≥ 5000 nM | ≤ 100 nM | ≤ 100 nM | < 300 nM | CC1(C)c2[nH]nc(NC(=O)C3([Si](C)(C)C)CCC3)c2CN1C(=O)Nc1ccccc1F [IV-3, N-(2-Fluorophenyl)-6,6-dimethyl-3-[1-(trimethylsilyl)cyclobutanecarboxamido]-4,6-dihydropyrrolo[3,4-c]pyrazole-5(1H)-carboxamide] | ≥ 50%
5 | ≥ 5000 nM | ≤ 100 nM | ≤ 100 nM | < 300 nM | CC1(C)c2[nH]nc(NC(=O)C3([Si](C)(C)C)CCC3)c2CN1C(=O)Nc1c(F)ccc2ccoc12 [IV-1049, N-(6-Fluorobenzofuran-7-yl)-6,6-dimethyl-3-[1-(trimethylsilyl)cyclobutanecarboxamido]-4,6-dihydropyrrolo[3,4-c]pyrazole-5 (1H)-carboxamide] | ≥ 50%
6 | ≥ 5000 nM | ≤ 100 nM | ≤ 100 nM | < 300 nM | Cc1ccc(C)c(NC(=O)N2Cc3c(NC(=O)C4([Si](C)(C)C)CCC4)n[nH]c3C2(C)C)c1F [IV-669, N-(2-Fluoro-3,6-dimethylphenyl)-6,6-dimethyl-3-[1-(trimethylsilyl)cyclobutanecarboxamido]-4,6-dihydropyrrolo[3,4-c]pyrazole-5(1H)-carboxamide] | ≥ 50%
7 | ≥ 5000 nM | ≤ 100 nM | ≤ 100 nM | < 300 nM | Cc1cccc(Br)c1NC(=O)N1Cc2c(NC(=O)C3([Si](C)(C)C)CCC3)n[nH]c2C1(C)C [IV-299, N-(2-Bromo-6-methylphenyl)-6,6-dimethyl-3-[1-(trimethylsilyl)cyclobutanecarboxamido]-4,6-dihydropyrrolo[3,4-c]pyrazole-5 (1H)-carboxamide] | ≥ 50%
8 | ≥ 5000 nM | ≤ 100 nM | ≤ 100 nM | – | CCc1cccc(C)c1NC(=O)N1Cc2c(NC(=O)C3([Si](C)(C)C)CCC3)n[nH]c2C1(C)C [IV-389, N-(2-Ethyl-6-methylphenyl)-6,6-dimethyl-3-[1-(trimethylsilyl)cyclobutanecarboxamido]-4,6-dihydropyrrolo[3,4-c]pyrazole-5 (1H)-carboxamide] | ≥ 50%
9 | ≥ 5000 nM | ≤ 100 nM | ≤ 100 nM | < 300 nM | Cc1cccc(Cl)c1NC(=O)N1Cc2c(NC(=O)C3([Si](C)(C)C)CCC3)n[nH]c2C1(C)C [IV-215, N-(2-Chloro-6-methylphenyl)-6,6-dimethyl-3-[1-(trimethylsilyl)cyclobutanecarboxamido]-4,6-dihydropyrrolo[3,4-c]pyrazole-5 (1H)-carboxamide] | ≥ 50%
10 | ≥ 5000 nM | ≤ 100 nM | ≤ 100 nM | – | CCc1cccc(F)c1NC(=O)N1Cc2c(NC(=O)C3([Si](C)(C)C)CCC3)n[nH]c2C1(C)C [IV-137, N-(2-Ethyl-6-fluorophenyl)-6,6-dimethyl-3-[1-(trimethylsilyl)cyclobutanecarboxamido]-4,6-dihydropyrrolo[3,4-c]pyrazole-5(1H)-carboxamide] | –
11 | ≥ 5000 nM | ≤ 100 nM | ≤ 100 nM | – | CC1(C)c2[nH]nc(NC(=O)C3([Si](C)(C)C)CCC3)c2CN1C(=O)Nc1c(Cl)cccc1Cl [IV-199, N-(2,6-Dichlorophenyl)-6,6-dimethyl-3-[1-(trimethylsilyl)cyclobutanecarboxamido]-4,6-dihydropyrrolo[3,4-c]pyrazole-5(1H)-carboxamide] | ≥ 50%
12 | ≥ 5000 nM | ≤ 100 nM | ≤ 100 nM | < 300 nM | Cc1ccc(F)cc1NC(=O)N1Cc2c(NC(=O)C3([Si](C)(C)C)CCC3)n[nH]c2C1(C)C [IV-361, N-(5-Fluoro-2-methylphenyl)-6,6-dimethyl-3-[1-(trimethylsilyl)cyclobutanecarboxamido]-4,6-dihydropyrrolo[3,4-c]pyrazole-5 (1H)-carboxamide] | ≥ 50%
